Test results from US9458414B2, “Cleaning, surfactant, and personal care compositions” (SEGETIS, INC., priority 2012, dated 2016).

Assay: Vanillin composition in ketal alcohol (1a)
Type: physicochemical
Conditions: 75% ketal alcohol (1a) to 25% vanillin by weight, room temperature
Experimental: Vanillin was dissolved into the ketal alcohol (1a) at room temperature using 75% ketal alcohol (1a) to 25% vanillin by weight.

With COc1cc(C=O)ccc1O [Vanillin] as the molecule, how does the “Appearance of mixture in ketal alcohol (1a)” value read?
The value was “homogeneous clear liquid with no signs of precipitate”.
